Experimental data reported in ChEMBL document CHEMBL1131938, “Leucine-phenylalanine dipeptide-based N-mesyloxysuccinimides: synthesis of all four stereoisomers and their assay against serine proteases” (Bioorg Med Chem Lett, 1999).

What was measured:
[1] = target: Chymotrypsinogen A (Bos taurus) (UniProt P00766); assay: Inhibitory activity against Chymotrypsinogen was determined
[2] = target: T1, Neutrophil elastase (Homo sapiens) (UniProt P08246); assay: Inhibitory activity against human neutrophil elastase after 30 min incubation; set-up: concentration or dose not given beside the values
T1 sequence (whole entry): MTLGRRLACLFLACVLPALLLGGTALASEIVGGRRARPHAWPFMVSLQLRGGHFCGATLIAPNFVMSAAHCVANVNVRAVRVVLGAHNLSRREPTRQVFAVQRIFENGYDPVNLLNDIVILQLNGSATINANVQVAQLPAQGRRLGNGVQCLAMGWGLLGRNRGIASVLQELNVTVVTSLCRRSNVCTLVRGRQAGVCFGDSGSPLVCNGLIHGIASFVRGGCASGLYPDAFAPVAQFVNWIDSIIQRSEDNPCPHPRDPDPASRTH

[3] = target: Chymotrypsinogen A (Bos taurus) (UniProt P00766); assay: Inhibitory activity against Chymotrypsinogen enzyme was determined

Q: For `CC(=O)N[C@@H](CC(C)C)C(=O)N[C@@]1(Cc2ccccc2)CC(=O)N(OS(C)(=O)=O)C1=O`, which k obs / 1 [1] is on record?
A: 28 M⁻¹ s⁻¹

Q: What about the inhibition [2] of the same molecule?
A: 24%

Q: What does the source list for `CC(=O)N[C@]1(Cc2ccccc2)CC(=O)N(OS(C)(=O)=O)C1=O`?
A: k obs / 1 [3]: 217 M⁻¹ s⁻¹; inhibition [2]: 56%

Q: Which results are given for `CCCCOC(=O)N[C@@H](CC(C)C)C(=O)N[C@]1(Cc2ccccc2)CC(=O)N(OS(C)(=O)=O)C1=O`?
A: k obs / 1 [3]: 180 M⁻¹ s⁻¹; inhibition [2]: 48%

Q: Which k obs / 1 [3] does the source give for `CC(=O)N[C@@H](CC(C)C)C(=O)N[C@]1(Cc2ccccc2)CC(=O)N(OS(C)(=O)=O)C1=O` here?
A: 170 M⁻¹ s⁻¹

Q: What about the inhibition [2] of the same molecule?
A: 63%

Q: For `CC(=O)N[C@H](CC(C)C)C(=O)N[C@]1(Cc2ccccc2)CC(=O)N(OS(C)(=O)=O)C1=O`, which k obs / 1 [3] is on record?
A: 244 M⁻¹ s⁻¹

Q: And the inhibition [2]?
A: 72%

Q: With `CC(=O)N[C@H](CC(C)C)C(=O)N[C@@]1(Cc2ccccc2)CC(=O)N(OS(C)(=O)=O)C1=O` as the molecule, how does the k obs / 1 [3] read?
A: 9 M⁻¹ s⁻¹

Q: And the inhibition [2]?
A: 6%
